Earlier results, collected in patent US20080064711A1, “Composition for treating oral cavity and Mucousal infections” (J.P.M.E.D. LTD., priority 2002, published 2008).

Key:
[1] = system: human keratinocyte and fibroblast cultures; conditions: Ponec et al. J Pharm Sci 1990
[2] = system: Gram negative bacteria that tend to colonize the oral cavity; conditions: patients undergoing radiation therapy; Spijkervet et al., 1990

Compound	Cytotoxicity to human keratinocyte and fibroblast cultures [1]	Effectiveness against Gram negative bacteria colonizing the oral cavity [2]
CN(C)C=O [dimethylformamide]	cytotoxic	–
[H]/N=C(\N/C(=N/[H])NCCCCCCNC(=N)NC(=N)Nc1ccc(Cl)cc1)Nc1ccc(Cl)cc1 [chlorhexidine]	–	relatively ineffective
C[S+](C)[O-] [dimethylsulfoxide]	cytotoxic	–
CCO [Ethanol]	cytotoxic	–
CC(O)CO (centres unmarked) [propylene glycol]	cytotoxic	–
